Series [1] concerns the target TNF (Homo sapiens, UniProt P01375). In words: TNF-neutralization bioassay: TNF-induced cell death of LM cells (MTT). The series is classed as cell-based. The procedure, abridged: (§1)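 Mouse fibroblast LM cells (5×10^4 cells/well) treated with TNF (20 ng/ml), compound and actinomycin D sensitizer for 24 h. Viability by MTT (4 h), absorbance at 570 nm. % TNF inhibition from OD relative to TNF-treated and untreated groups; IC50 and CC50 by Prism.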

Series [2] in a line: Cytotoxicity (CC50) in LM cells, MTT assay. The class given is cell-based. Particulars: mouse, LM cells (mouse fibroblasts); 50% cytotoxic concentration. The method in brief: as §1
In general terms: Formazan colour is commonly taken as a measure of viable cells.

Series [3] deals with TNF-etanercept binding (Homo sapiens, UniProt P01375). In words: SPR competition: inhibition of TNF-etanercept binding. Particulars: etanercept alone vs with compound, FIG. 2e. Here is the method:
The competition of binding of TNF-inhibiting biopharmaceutical etanercept and the derivative compounds to TNF was measured by SPR assay. Based on the results of pH scouting (10 mM acetate buffer, pH 4.0, 4.5, 5.0, and 5.5), the appropriate buffer pH was determined, and then the recombinant TNF was immobilized on the CM5 chip (4000-5000 RU). In order to correct an effect of DMSO, a solvent correction standard was then prepared, and DMSO was added to the PBST buffer (1×PBS, pH 7.4, 0.05% Tween 20, 0.01% Triton X-100, 5% DMSO) in an amount of 5%. Then, Etanercept alone or in combination with the compounds was flowed into the chip (20 μl/min, 300 s) and dissolved (700 s), and the results of sensorgram were analyzed by a dedicated program. […] At this time, the running buffer was PBST buffer, the regeneration buffer was 10 mM glycine (pH 2.5), and the instrument was Biacore T200 (GE).

For series [4], the system named is DBA/1 mice. Put plainly: CIA mouse model, alone and in combination with methotrexate. The class given is in vivo. As to conditions: Example 61 10 mpk PO once a day, MTX 5 mpk three times a week, to Day 73. The source says:
A 1:1 mixture of collagen type 2 and CFA was intradermally (ID) injected into the base of the tail of DBA/1 mice. Two weeks after the primary immunization, a 1:1 mixture of bovine collagen type 2 and IFA (incomplete Freund's adjuvant) was intradermally (ID) injected into the base of the tail to prepare the rheumatoid arthritis animal model. The thus prepared mice were divided into […], i.e., a positive control group (MTX 5 mpk treated group: 10 mice), a group treated with the compound of Example 61 alone (10 mpk treated group: 9 mice), a group treated with MTX and the compound of Example 61 (each 5 mpk and 10 mpk; 9 mice), and a group treated with vehicle (a group treated with 0.05% CMC diluted in distilled water; 15 mice). […]
The severity of arthritis was determined by ascertaining the mean score of arthritis according to the following standard score in the forefoot and hindfoot twice a week from Day 0 to Day 73 after the primary immunization: 0=normal foot, 1=inflammation and swelling of one toe, 2=inflammation and swelling of more than one toe, but not all of the toes have inflammation and swelling, or weak swelling of all toes, 3=inflammation and swelling of all toes, and 4=severe inflammation and swelling or occlusion of foot.

The structures appear in SMILES notation.

Sequence of TNF (P01375 77-233 limits assumed): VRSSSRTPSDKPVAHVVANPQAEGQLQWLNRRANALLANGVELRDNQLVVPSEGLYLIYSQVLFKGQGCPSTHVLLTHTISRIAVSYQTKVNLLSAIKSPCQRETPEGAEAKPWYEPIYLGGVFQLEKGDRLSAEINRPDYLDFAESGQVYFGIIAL
Sequence of TNF-etanercept binding (P01375 77-233 limits assumed): as above

A word on the inhibition: it is the change of the read-out against control, counted positive when it falls. Higher therefore signals strong suppression. Broadly, the IC50 is the concentration needed to halve the response being measured. In general, CC50 refers to the concentration giving 50% cytotoxicity. Low values mean harm at low concentration, high ones better tolerance by the cells. Compound `O=C(O)c1c(-c2cc(F)ccc2F)oc2cc(Cl)ccc2c1=O` [Example 61, 2-(2,5-difluorophenyl)-3-carboxy-7-chloro-(4H)-4-benzopyranone] gave an inhibition at 50 µM in series [1] (compound 50 μM, TNF 20 ng/ml, actinomycin D, LM cells, 24 hours) of 95.7%. This compound also had an IC50 in series [1] (inhibition of TNF-induced LM cell death) of 1.8 µM. Moreover, in series [2], the CC50 at 24 h is greater than 50 µM. The “inhibition of TNF-etanercept binding” value in series [3] was “significantly inhibited the TNF-etanercept binding”. Further, the “therapeutic effect on arthritis (mean arthritis score)” value in series [4] was “therapeutic effect on arthritis was shown”.
